# Reference: ChEMBL document CHEMBL5214905 (J Med Chem, 2021)
# Active and inactive are the calls of the source. No cut-off for these calls is given here.
# How the values were obtained:
# [1] = target: T1, Tryptophan 2,3-dioxygenase (Homo sapiens, UniProt P48775)
# Description: Inhibition of human TDO (19 to 388 aa) expressed in Escherichia coli Transetta (DE3) by nanodrop 2000c spectrophotometric analysis
# [2] = Unbound fraction in mouse brain by LC-MS/MS analysis relative to control; format: ADME, tissue-based
# [3] = Half life in Sprague-Dawley rat plasma at 100 mg/kg, po by HPLC analysis; format: ADME, organism-based
# [4] = test system: BCRP; experiment: Apparent permeability in human Caco-2 expressing BCRP cells across basolateral to apical side in presence of novobiocin; format: ADME, cell-based; conditions: Caco-2, with novobiocin (concentration not stated), read-out: permeability
# [5] = test system: BCRP; experiment: Apparent permeability in human Caco-2 expressing BCRP cells across basolateral to apical side; format: ADME, cell-based; conditions: read-out: permeability
# [6] = test system: BCRP; experiment: Permeability in human Caco-2 expressing BCRP cells across basolateral to apical side by measuring ratio of the final amount of the compound in donor and receiver chambers to the initial amount of the compound in the donor chamber relative to control; format: ADME, cell-based
# [7] = test system: MDR1; experiment: Permeability in MDCKII expressing MDR1 cells across apical to basolateral side by measuring ratio of the final amount of the compound in donor and receiver chambers to the initial amount of the compound in the donor chamber relative to control; format: ADME, cell-based, Canis lupus familiaris, MDCK-II; conditions: dog, MDCK-MDR1
# [8] = test system: Mus musculus; experiment: Neuroprotective activity in MPTP induced C57BL/6J mouse neurodegenerative model assessed as decrease in Iba-1 expression in positive neuron cells in brain striatum treated with MPTP for 7 days followed by compound administration at 30 mg/kg, po by IHC staining method; format: functional, organism-based
# [9] = target: CYP2C9 (Homo sapiens, UniProt P11712); experiment: Inhibition of human liver microsome CYP2C9 using 4'-hydroxy diclofenac as substrate incubated at 3 uM for 10 mins by LC/MS/MS analysis relative to control; conditions: liver microsomes, probe 4'-hydroxy diclofenac (so in the source)
# [10] = Toxicity in MPTP induced C57BL/6J mouse neurodegenerative model assessed as no change in liver weight treated with MPTP for 7 days followed by compound administration at 10 to 30 mg/kg, po measured upto 32 days; format: organism-based; conditions: in vivo, 768 h, dose 10-30 mg/kg, time < 32 day
# [11] = Toxicity in MPTP induced C57BL/6J mouse neurodegenerative model assessed as no change in kidney weight treated with MPTP for 7 days followed by compound administration at 10 to 30 mg/kg, po measured upto 32 days; format: organism-based; conditions: in vivo, 768 h, dose 10-30 mg/kg, time < 32 day
# [12] = test system: Mus musculus; experiment: Neuroprotective activity in MPTP induced C57BL/6J mouse neurodegenerative model assessed as no change in IDO1 expression in brain striatum treated with MPTP for 7 days followed by compound administration at 30 mg/kg, po by Western blotting analysis; format: functional, organism-based
# [13] = Toxicity in MPTP induced C57BL/6J mouse neurodegenerative model assessed as no change in lung weight treated with MPTP for 7 days followed by compound administration at 10 to 30 mg/kg, po measured upto 32 days; format: organism-based; conditions: in vivo, 768 h, dose 10-30 mg/kg, time < 32 day
# [14] = Clearance in Sprague-Dawley rat plasma at 100 mg/kg, po measured after 0.083 to 24 hrs by HPLC analysis; format: ADME, organism-based; conditions: time 0.083-24 hrs
# [15] = Volume of distribution at steady state in Sprague-Dawley rat plasma at 100 mg/kg, po measured after 0.083 to 24 hrs by HPLC analysis; format: ADME, organism-based; conditions: in vivo, time 0.083-24 hrs
# [16] = test system: Mus musculus; experiment: Neuroprotective activity in MPTP induced C57BL/6J mouse neurodegenerative model assessed as normal cell morphology in neuron cells treated with MPTP for 7 days followed by compound administration at 30 mg/kg, po by IHC staining method; format: functional, organism-based
# [17] = target: Dual specificity tyrosine-phosphorylation-regulated kinase 1B (Homo sapiens) (UniProt Q9Y463); experiment: Inhibition of human wildtype full length DYRK1B expressed in bacterial system at 10 uM relative to control
# [18] = target: Indoleamine 2,3-dioxygenase 1 (Homo sapiens, UniProt P14902); experiment: Inhibition of IDO1 in IFN-gamma induced overexpressing human HeLa cells; format: cell-based
# [19] = AUC (0 to infinity) in Sprague-Dawley rat plasma at 100 mg/kg, iv measured after 0.083 to 24 hrs by HPLC analysis; format: ADME, organism-based; parameters: time lower 0.083 hrs, dose 100 mg/kg, time upper 24 hrs, route iv
# [20] = Volume of distribution at steady state in Sprague-Dawley rat plasma at 100 mg/kg, iv measured after 0.083 to 24 hrs by HPLC analysis; format: ADME, organism-based; conditions: time 0.083-24 hrs, read-out: Vdss
# [21] = target: Cytochrome P450 2C9 (Homo sapiens, UniProt P11712); experiment: Inhibition of human liver microsome CYP2C9 using 4'-hydroxy diclofenac as substrate incubated for 10 mins by LC/MS/MS analysis; format: microsomes
# [22] = test system: Mus musculus; experiment: Neuroprotective activity in MPTP induced neurodegenerative C57BL/6J mouse model assessed as decrease in tryptophan metabolite NFK in mouse striatum treated with MPTP for 7 days followed by compound administration at 30 mg/kg, po by LC-MS/MS analysis; format: functional, organism-based
# [23] = test system: Mus musculus; experiment: Neuroprotective activity in MPTP induced C57BL/6J mouse neurodegenerative model assessed as increase in tyrosine hydroxylase expression in positive neuron cells in brain SNpc treated with MPTP for 7 days followed by compound administration at 30 mg/kg, po by IHC staining method; format: functional, organism-based; conditions: Substantia nigra pars compacta
# [24] = target: T1, Tryptophan 2,3-dioxygenase; experiment: Inhibition of TDO in overexpressing human A-172 cells; format: cell-based
# [25] = Half life in Sprague-Dawley rat plasma at 100 mg/kg, iv by HPLC analysis; format: ADME, organism-based
# [26] = Tmax in Sprague-Dawley rat plasma at 100 mg/kg, po measured after 0.083 to 24 hrs by HPLC analysis; format: ADME, organism-based; conditions: time 0.083-24 hrs
# [27] = AUC (0 to 12 hrs) in Sprague-Dawley rat plasma at 100 mg/kg, po measured after 0.083 to 24 hrs by HPLC analysis; format: ADME, organism-based; parameters: time lower 0.083 hrs, dose 100 mg/kg, time upper 24 hrs, route po
# [28] = Toxicity in MPTP induced C57BL/6J mouse neurodegenerative model assessed as no change in body weight treated with MPTP for 7 days followed by compound administration at 10 to 100 mg/kg, po measured upto 32 days; format: organism-based; conditions: in vivo, 768 h, dose 10-100 mg/kg, time < 32 day
# [29] = Clearance in Sprague-Dawley rat plasma at 100 mg/kg, iv measured after 0.083 to 24 hrs by HPLC analysis; format: ADME, organism-based; conditions: time 0.083-24 hrs
# [30] = target: T1, Tryptophan 2,3-dioxygenase; experiment: Inhibition of TDO in overexpressing human SW48 cells; format: cell-based
# [31] = target: Receptor-type tyrosine-protein kinase FLT3 (Homo sapiens) (UniProt P36888); experiment: Inhibition of human wildtype partial length FLT3 expressed in bacterial system at 10 uM relative to control
# [32] = test system: BCRP; experiment: Efflux ratio of apparent permeability across basolateral to apical side to apical to basolateral side in human Caco-2 expressing BCRP cells; format: ADME, cell-based
# [33] = test system: MDR1; experiment: Permeability in MDCKII expressing MDR1 cells across basolateral to apical side by measuring ratio of the final amount of the compound in donor and receiver chambers to the initial amount of the compound in the donor chamber relative to control; format: ADME, cell-based, Canis lupus familiaris, MDCK-II; conditions: dog, MDCK-MDR1
# [34] = Cmax in Sprague-Dawley rat plasma at 100 mg/kg, po measured after 0.083 to 24 hrs by HPLC analysis; format: ADME, organism-based; parameters: time lower 0.083 hrs, dose 100 mg/kg, time upper 24 hrs, route po
# T1 sequence (P48775 whole entry): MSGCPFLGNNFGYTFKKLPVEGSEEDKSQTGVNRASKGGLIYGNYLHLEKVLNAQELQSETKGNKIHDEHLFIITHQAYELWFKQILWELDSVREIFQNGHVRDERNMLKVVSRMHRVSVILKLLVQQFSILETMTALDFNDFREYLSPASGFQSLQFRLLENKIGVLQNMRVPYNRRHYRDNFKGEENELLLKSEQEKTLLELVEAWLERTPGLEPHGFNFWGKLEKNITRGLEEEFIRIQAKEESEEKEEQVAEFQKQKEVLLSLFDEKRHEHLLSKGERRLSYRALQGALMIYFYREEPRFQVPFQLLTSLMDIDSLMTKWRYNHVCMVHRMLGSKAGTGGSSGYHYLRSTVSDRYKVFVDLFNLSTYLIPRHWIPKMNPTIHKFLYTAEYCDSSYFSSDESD
# Dual specificity tyrosine-phosphorylation-regulated kinase 1B (Homo sapiens), sequence (Q9Y463 whole entry, looked up): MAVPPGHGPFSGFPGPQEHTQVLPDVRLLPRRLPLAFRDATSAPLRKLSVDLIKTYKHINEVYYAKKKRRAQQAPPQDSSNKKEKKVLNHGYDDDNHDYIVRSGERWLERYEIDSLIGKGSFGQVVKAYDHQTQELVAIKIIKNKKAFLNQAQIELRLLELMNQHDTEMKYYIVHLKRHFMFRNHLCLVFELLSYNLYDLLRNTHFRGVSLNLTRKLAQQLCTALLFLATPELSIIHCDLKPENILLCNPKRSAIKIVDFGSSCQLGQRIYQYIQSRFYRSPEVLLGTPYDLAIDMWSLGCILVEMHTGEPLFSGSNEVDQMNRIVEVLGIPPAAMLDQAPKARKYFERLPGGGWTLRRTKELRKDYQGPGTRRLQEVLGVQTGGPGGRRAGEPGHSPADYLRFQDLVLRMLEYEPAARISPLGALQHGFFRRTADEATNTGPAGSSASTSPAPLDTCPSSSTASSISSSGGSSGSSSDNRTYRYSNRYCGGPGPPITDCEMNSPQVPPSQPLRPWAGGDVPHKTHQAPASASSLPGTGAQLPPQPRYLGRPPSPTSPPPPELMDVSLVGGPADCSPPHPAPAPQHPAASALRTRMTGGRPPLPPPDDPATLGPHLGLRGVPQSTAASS
# Receptor-type tyrosine-protein kinase FLT3 (Homo sapiens), sequence (P36888 whole entry): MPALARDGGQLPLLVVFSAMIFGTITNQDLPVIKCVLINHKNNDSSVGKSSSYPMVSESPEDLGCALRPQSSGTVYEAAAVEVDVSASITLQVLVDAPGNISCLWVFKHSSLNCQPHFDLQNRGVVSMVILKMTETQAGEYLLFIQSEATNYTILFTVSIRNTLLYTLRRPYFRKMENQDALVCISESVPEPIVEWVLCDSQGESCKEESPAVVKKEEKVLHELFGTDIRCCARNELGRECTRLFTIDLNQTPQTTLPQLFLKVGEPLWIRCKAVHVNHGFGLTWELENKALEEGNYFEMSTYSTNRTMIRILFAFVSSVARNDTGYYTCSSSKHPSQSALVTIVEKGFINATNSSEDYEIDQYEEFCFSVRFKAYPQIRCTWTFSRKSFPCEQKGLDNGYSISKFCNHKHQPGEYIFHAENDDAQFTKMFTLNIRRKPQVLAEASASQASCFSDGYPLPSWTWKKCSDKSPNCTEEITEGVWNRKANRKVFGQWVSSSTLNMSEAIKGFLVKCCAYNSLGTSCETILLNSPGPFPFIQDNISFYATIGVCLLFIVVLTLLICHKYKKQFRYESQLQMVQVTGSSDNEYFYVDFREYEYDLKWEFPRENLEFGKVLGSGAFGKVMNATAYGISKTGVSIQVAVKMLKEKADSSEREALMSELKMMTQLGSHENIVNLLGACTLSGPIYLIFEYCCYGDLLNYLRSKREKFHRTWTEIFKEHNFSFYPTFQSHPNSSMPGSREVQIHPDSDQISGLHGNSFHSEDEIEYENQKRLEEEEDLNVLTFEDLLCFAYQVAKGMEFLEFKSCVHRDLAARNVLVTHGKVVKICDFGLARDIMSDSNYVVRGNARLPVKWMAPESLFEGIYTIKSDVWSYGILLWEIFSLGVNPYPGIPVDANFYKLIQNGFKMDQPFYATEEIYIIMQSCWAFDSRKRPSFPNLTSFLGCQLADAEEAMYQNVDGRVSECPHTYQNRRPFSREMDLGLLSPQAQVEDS
# CYP2C9, sequence (P11712 whole entry): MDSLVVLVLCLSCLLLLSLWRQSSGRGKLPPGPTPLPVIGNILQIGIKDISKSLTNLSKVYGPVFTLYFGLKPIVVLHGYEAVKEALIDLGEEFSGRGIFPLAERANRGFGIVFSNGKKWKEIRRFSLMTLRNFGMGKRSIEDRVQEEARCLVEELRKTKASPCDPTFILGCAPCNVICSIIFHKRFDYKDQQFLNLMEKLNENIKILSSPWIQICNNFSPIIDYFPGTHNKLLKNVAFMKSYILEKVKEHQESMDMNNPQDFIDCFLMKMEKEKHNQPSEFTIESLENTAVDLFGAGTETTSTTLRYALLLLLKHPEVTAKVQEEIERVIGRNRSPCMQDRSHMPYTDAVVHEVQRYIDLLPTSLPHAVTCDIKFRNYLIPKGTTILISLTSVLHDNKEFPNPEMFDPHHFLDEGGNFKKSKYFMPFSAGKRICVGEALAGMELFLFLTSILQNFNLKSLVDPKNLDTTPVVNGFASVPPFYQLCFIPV
# Cytochrome P450 2C9, sequence (P11712 whole entry): as above
# Indoleamine 2,3-dioxygenase 1, sequence (P14902 whole entry): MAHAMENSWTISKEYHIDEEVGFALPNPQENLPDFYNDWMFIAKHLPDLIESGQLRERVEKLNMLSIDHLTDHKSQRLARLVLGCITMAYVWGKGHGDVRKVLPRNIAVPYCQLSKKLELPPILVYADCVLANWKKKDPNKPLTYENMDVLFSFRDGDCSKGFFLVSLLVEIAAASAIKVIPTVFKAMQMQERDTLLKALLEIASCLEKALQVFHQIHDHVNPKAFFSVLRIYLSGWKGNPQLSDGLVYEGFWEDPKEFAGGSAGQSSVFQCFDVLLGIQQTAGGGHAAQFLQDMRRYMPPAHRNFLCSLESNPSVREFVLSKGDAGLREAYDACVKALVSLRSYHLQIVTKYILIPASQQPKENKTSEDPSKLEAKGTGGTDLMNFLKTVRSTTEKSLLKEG
structure (smiles),measurement,setting,value
O[C@@H]1CCCC[C@H]1CNc1cc(Br)cc2[nH]ncc12,IC50,[1],40 nM
same,Fu,[2],0.25%
same,half-life,[3],256 min
same,Papp B→A,[4],9.97 ×10⁻⁶ cm/s
same,Papp B→A,[5],10.4 ×10⁻⁶ cm/s
same,recovery,[6],74.5%
same,recovery,[7],55.1%
same,Activity,[8],Active
same,"inhibition at 10 min, 3 µM",[9],83.4%
same,Activity,[10],Non-Toxic
same,Activity,[11],Non-Toxic
same,Activity,[12],Active
same,Activity,[13],Non-Toxic
same,CL/F,[14],69.7 mL/min/kg
same,Vdss,[15],25.45 L/kg
same,Activity,[16],Active
same,inhibition,[17],> 90%
same,EC50,[18],5.5 µM
same,AUC(0-inf),[19],43800 ng·h/mL
same,Vd,[20],28.1 L/kg
same,IC50,[21],9.27 µM
same,Activity,[22],Active
same,Activity,[23],Active
same,EC50,[24],3.03 µM
same,half-life,[25],604 min
same,Tmax,[26],25.2 min
same,AUC(0-t),[27],22200 ng·h/mL
same,Activity,[28],Non-Toxic
same,clearance,[29],40.5 mL/min/kg
same,EC50,[30],1070 nM
same,inhibition,[31],> 90%
same,efflux ratio,[32],0.56
same,recovery,[33],81.9%
same,Cmax,[34],6870 ng/mL
